From the supplement of paper PMC10307832

Key:
Assay in all cases: relative viability (nuclei count vs DMSO), 5 days (fraction); higher = more cells survive
A-427 = tested on: A-427
Method in brief: (§1)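 For relative viability, nuclei counts in treated wells were divided by those in vehicle wells. Lung cancer cell lines had been pin-tool dosed in 1536-well plates the day after seeding and cultured for 5 days, then fixed and stained in one step (final 0.05% Triton X-100, 1% formaldehyde, 1 ug/ml Hoechst) and imaged at 4×. Doses were one drug alone or a fixed anchor-drug dose plus five library-drug doses (not always all listed) in √10 steps, and values are duplicate-plate medians.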

NCI-H1975 = tested on: NCI-H1975
Method in brief: as §1

NCI-H1563 = tested on: NCI-H1563
Method in brief: as §1

NCI-H1755 = tested on: NCI-H1755
Method in brief: as §1

NCI-H520 = tested on: NCI-H520
Method in brief: as §1

ChaGo-K-1 = tested on: ChaGo-K-1
Method in brief: as §1

NCI-H1734 = tested on: NCI-H1734
Method in brief: as §1

NCI-H2170 = tested on: NCI-H2170
Method in brief: as §1

NCI-H23 = tested on: NCI-H23
Method in brief: as §1

NCI-H1666 = tested on: NCI-H1666
Method in brief: as §1

EKVX = tested on: EKVX
Method in brief: as §1

EMC-BAC-2 = tested on: EMC-BAC-2
Method in brief: as §1

PC-3 [JPC-3] = tested on: PC-3 [JPC-3]
Method in brief: as §1

SK-MES-1 = tested on: SK-MES-1
Method in brief: as §1

LK-2 = tested on: LK-2
Method in brief: as §1

NCI-H441 = tested on: NCI-H441
Method in brief: as §1

SW 900 = tested on: SW 900
Method in brief: as §1

NCI-H1792 = tested on: NCI-H1792
Method in brief: as §1

LOU-NH91 = tested on: LOU-NH91
Method in brief: as §1

COR-L 105 = tested on: COR-L 105
Method in brief: as §1

NCI-H596 = tested on: NCI-H596
Method in brief: as §1

H3255 = tested on: H3255
Method in brief: as §1

O=C(O)c1ccc(-c2c[nH]c3ncc(-c4ccccc4)cc23)cc1C1CCCC1 + CCNC(=O)c1noc(-c2cc(C(C)C)c(O)cc2O)c1-c1ccc(CN2CCOCC2)cc1 [Luminespib] (partner 0.01 µM)
relative viability (A-427; first compound 0.04 µM): 0.956 | relative viability (A-427; first compound 0.1265 µM): 1.01 | relative viability (A-427; first compound 0.4 µM): 0.647 | relative viability (A-427; first compound 1.265 µM): 0.577 | relative viability (NCI-H1975; first compound 0.04 µM): 0.131 | relative viability (NCI-H1975; first compound 0.1265 µM): 0.302 | relative viability (NCI-H1975; first compound 0.4 µM): 0.199 | relative viability (NCI-H1975; first compound 1.265 µM): 0.338 | relative viability (NCI-H1563; first compound 0.04 µM): 0.489 | relative viability (NCI-H1563; first compound 0.1265 µM): 0.599 | relative viability (NCI-H1563; first compound 0.4 µM): 0.42 | relative viability (NCI-H1563; first compound 1.265 µM): 0.508 | relative viability (NCI-H1755; first compound 0.04 µM): 0.375 | relative viability (NCI-H1755; first compound 0.1265 µM): 0.644 | relative viability (NCI-H1755; first compound 0.4 µM): 0.695 | relative viability (NCI-H1755; first compound 1.265 µM): 0.574 | relative viability (NCI-H520; first compound 0.04 µM): 0.223 | relative viability (NCI-H520; first compound 0.1265 µM): 0.195 | relative viability (NCI-H520; first compound 0.4 µM): 0.211 | relative viability (NCI-H520; first compound 1.265 µM): 0.217 | relative viability (ChaGo-K-1; first compound 0.04 µM): 0.712 | relative viability (ChaGo-K-1; first compound 0.1265 µM): 0.651 | relative viability (ChaGo-K-1; first compound 0.4 µM): 0.56 | relative viability (ChaGo-K-1; first compound 1.265 µM): 0.536 | relative viability (NCI-H1734; first compound 0.04 µM): 0.186 | relative viability (NCI-H1734; first compound 0.1265 µM): 0.194 | relative viability (NCI-H1734; first compound 0.4 µM): 0.224 | relative viability (NCI-H1734; first compound 1.265 µM): 0.202 | relative viability (NCI-H2170; first compound 0.04 µM): 0.745 | relative viability (NCI-H2170; first compound 0.1265 µM): 0.804 | relative viability (NCI-H2170; first compound 0.4 µM): 0.794 | relative viability (NCI-H2170; first compound 1.265 µM): 0.491 | relative viability (NCI-H23; first compound 0.04 µM): 0.224 | relative viability (NCI-H23; first compound 0.1265 µM): 0.217 | relative viability (NCI-H23; first compound 0.4 µM): 0.217 | relative viability (NCI-H23; first compound 1.265 µM): 0.2 | relative viability (NCI-H1666; first compound 0.04 µM): 0.976 | relative viability (NCI-H1666; first compound 0.1265 µM): 0.97 | relative viability (NCI-H1666; first compound 0.4 µM): 0.959 | relative viability (NCI-H1666; first compound 1.265 µM): 0.579 | relative viability (EKVX; first compound 0.04 µM): 0.885 | relative viability (EKVX; first compound 0.1265 µM): 0.92 | relative viability (EKVX; first compound 0.4 µM): 0.931 | relative viability (EKVX; first compound 1.265 µM): 0.615 | relative viability (EMC-BAC-2; first compound 0.04 µM): 1.19 | relative viability (EMC-BAC-2; first compound 0.1265 µM): 1.16 | relative viability (EMC-BAC-2; first compound 0.4 µM): 1.13 | relative viability (EMC-BAC-2; first compound 1.265 µM): 0.975 | relative viability (PC-3 [JPC-3]; first compound 0.04 µM): 0.678 | relative viability (PC-3 [JPC-3]; first compound 0.1265 µM): 0.761 | relative viability (PC-3 [JPC-3]; first compound 0.4 µM): 0.619 | relative viability (PC-3 [JPC-3]; first compound 1.265 µM): 0.569 | relative viability (SK-MES-1; first compound 0.04 µM): 0.81 | relative viability (SK-MES-1; first compound 0.1265 µM): 0.973 | relative viability (SK-MES-1; first compound 0.4 µM): 0.596 | relative viability (SK-MES-1; first compound 1.265 µM): 0.35 | relative viability (LK-2; first compound 0.04 µM): 0.157 | relative viability (LK-2; first compound 0.1265 µM): 0.187 | relative viability (LK-2; first compound 0.4 µM): 0.161 | relative viability (LK-2; first compound 1.265 µM): 0.168 | relative viability (NCI-H441; first compound 0.04 µM): 0.332 | relative viability (NCI-H441; first compound 0.1265 µM): 0.431 | relative viability (NCI-H441; first compound 0.4 µM): 0.266 | relative viability (NCI-H441; first compound 1.265 µM): 0.298 | relative viability (SW 900; first compound 0.04 µM): 0.185 | relative viability (SW 900; first compound 0.1265 µM): 0.171 | relative viability (SW 900; first compound 0.4 µM): 0.175 | relative viability (SW 900; first compound 1.265 µM): 0.156 | relative viability (NCI-H1792; first compound 0.1265 µM): 0.477 | relative viability (NCI-H1792; first compound 0.4 µM): 0.351 | relative viability (NCI-H1792; first compound 1.265 µM): 0.519 | relative viability (LOU-NH91; first compound 0.04 µM): 0.323 | relative viability (LOU-NH91; first compound 0.1265 µM): 0.33 | relative viability (LOU-NH91; first compound 0.4 µM): 0.278 | relative viability (LOU-NH91; first compound 1.265 µM): 0.472 | relative viability (COR-L 105; first compound 0.04 µM): 0.933 | relative viability (COR-L 105; first compound 0.1265 µM): 0.76 | relative viability (COR-L 105; first compound 0.4 µM): 0.762 | relative viability (COR-L 105; first compound 1.265 µM): 0.773 | relative viability (NCI-H596; first compound 0.04 µM): 1 | relative viability (NCI-H596; first compound 0.1265 µM): 1.03 | relative viability (NCI-H596; first compound 0.4 µM): 0.909 | relative viability (NCI-H596; first compound 1.265 µM): 0.973 | relative viability (H3255; first compound 0.04 µM): 0.978 | relative viability (H3255; first compound 0.1265 µM): 0.983 | relative viability (H3255; first compound 0.4 µM): 0.855 | relative viability (H3255; first compound 1.265 µM): 0.778
